*1 amine or outer side, *2 acyl side, *3 side chain or, on linkers, in order; H or OH if unused. Where a SMILES comes first, the peptide text is derived from it. Side-chain parts run from the residue outwards. [ ]: non-standard residue; d: D form. βAsp = O=C(O)[C@H](CC(=O)[*:2])N[*:1]; NMeF = CN[C@@H](Cc1ccccc1)C(=O)O; CO = O=C([*:1])[*:2]
Columns and labels:
Test in all cases: Enzyme Inhibition Assay
Endochitinase B1 [D175A] = Endochitinase B1 [D175A] (Aspergillus fumigatus, UniProt Q873X9, D175A)
Endochitinase B1 [A217G] = Endochitinase B1 [A217G] (Aspergillus fumigatus, UniProt Q873X9, A217G)
Endochitinase B1 [T138A] = Endochitinase B1 [T138A] (Aspergillus fumigatus, UniProt Q873X9, T138A)
Endochitinase B1 [M243A] = Endochitinase B1 [M243A] (Aspergillus fumigatus, UniProt Q873X9, M243A)
Endochitinase B1 [R301K] = Endochitinase B1 [R301K] (Aspergillus fumigatus, UniProt Q873X9, R301K)
Endochitinase B1 = Endochitinase B1 (Aspergillus fumigatus, UniProt Q873X9); conditions: for IC50: pH 5.5, 37 °C
Chitinase B = target: T1, Chitinase B (Serratia marcescens, UniProt P11797); conditions: pH 5.5; 37 °C
T1 sequence (P11797 whole entry): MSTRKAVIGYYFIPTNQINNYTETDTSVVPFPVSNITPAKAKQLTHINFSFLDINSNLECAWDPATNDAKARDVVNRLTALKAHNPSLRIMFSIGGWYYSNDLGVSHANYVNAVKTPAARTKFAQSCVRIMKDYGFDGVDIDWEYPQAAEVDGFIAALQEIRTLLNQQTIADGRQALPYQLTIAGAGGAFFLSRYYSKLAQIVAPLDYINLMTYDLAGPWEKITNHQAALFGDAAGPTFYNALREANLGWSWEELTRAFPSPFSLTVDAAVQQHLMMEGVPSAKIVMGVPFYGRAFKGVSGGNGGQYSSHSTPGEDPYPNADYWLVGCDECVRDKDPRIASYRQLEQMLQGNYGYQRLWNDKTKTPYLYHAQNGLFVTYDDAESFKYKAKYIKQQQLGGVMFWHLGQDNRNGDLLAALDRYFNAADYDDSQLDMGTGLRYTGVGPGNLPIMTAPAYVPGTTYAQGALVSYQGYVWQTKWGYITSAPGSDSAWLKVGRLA

Endochitinase B1 [E322A] = Endochitinase B1 [E322A] (Aspergillus fumigatus, UniProt Q873X9, E322A)
Endochitinase B1 [Y245F] = Endochitinase B1 [Y245F] (Aspergillus fumigatus, UniProt Q873X9, Y245F)

| Compound | Kd (Endochitinase B1 [D175A]) [µM] | Kd (Endochitinase B1 [A217G]) [µM] | Kd (Endochitinase B1 [T138A]) [µM] | Kd (Endochitinase B1 [M243A]) [µM] | Kd (Endochitinase B1 [R301K]) [µM] | Kd (Endochitinase B1) [µM] | IC50 (Endochitinase B1) [µM] | Ki (Chitinase B) [µM] | Kd (Endochitinase B1 [E322A]) [µM] | Kd (Endochitinase B1 [Y245F]) [µM] |
| --- | --- | --- | --- | --- | --- | --- | --- | --- | --- | --- |
| CNC(=O)NC(=N)NCCC[C@@H]1NC(=O)[C@@H](C)NC(=O)C[C@@H](C(=O)O)NC(=O)C[C@@H](C(=O)O)NC(=O)[C@H](Cc2ccccc2)N(C)C1=O [(2R,5S,8S,11S,15S)-8-benzyl-2,7-dimethyl-5-[3-({[(methylcarbamoyl)amino]methanimidoyl}amino)propyl]-3,6,9,13,17-pentaoxo-1,4,7,10,14-pentaazacycloheptadecane-11,15-dicarboxylic acid] (cyclo([NMeF][βAsp][βAsp][dA]R([CO-NHMe]))) | 3.81 | 4.24 | 1.21 | 1.73 | 2.16 | 0.46 | 1.1 | 33 | 1.37 | – |
| CC(=O)NC(=N)NCCC[C@@H]1NC(=O)[C@H](CCCC(=O)O)NC(=O)[C@H](Cc2c[nH]cn2)N2C(=O)[C@H](C[C@H]2O)NC(=O)[C@H]2CCCN2C1=O [4-[(1S,4R,10S,13S,16S,18R)-10-{3-[(acetamidomethanimidoyl)amino]propyl}-18-hydroxy-16-(1H-imidazol-4-ylmethyl)-3,9,12,15,20-pentaoxo-2,8,11,14,17-pentaazatricyclo[15.2.1.0^{4,8}]icosan-13-yl]butanoic acid] | 3.6 | 2.84 | 3.04 | 9.39 | 1.02 | 0.81 | 0.5 | 0.02 | 2.93 | 5.57 |

Source: BindingDB's records for doi:10.1016/j.chembiol.2004.10.013 (University of Dundee, 2005)
